Measured values as given in patent US20260146274A1, “RECOMBINANT SMALL-MOLECULE COLLAGEN, EXPRESSION SYSTEM THEREOF, AND PREPARATION METHOD THEREOF” (JIANGSU TRAUTEC MEDICAL TECHNOLOGY CO., LTD., priority 2023, published 2026).

B1: 3A5D1NT: 96 amino acids, positions 990 to 1085 of full-length human type III collagen, SEQ ID NO.1 (protein, listed as Homo sapiens)
chain: DGNPGSDGLPGRDGSPGGKGDRGENGSPGAPGAPGHPGPPGPVGPAGKSGDRGESGPAGPAGAPGPAGSRGAPGPQGPRGDKGETGERGAAGIKGH
modifications: Recombinant small-molecule collagen 3A5D1NT

Test system: NIH/3T3 cell
Test: Cell adhesion activity detection (LDH kit, OD492 nm)
Format: cell-based
Conditions: for cell adhesion activity (absorbance at OD492 nm) compared with natural human collagen: protein coated at 0.5 mg/mL, NIH/3T3 cells, 60 minutes, FIG. 26
Method: References for Detection Method for Cell Adhesion Activity of Recombinant Small-Molecule Collagen: Juming Yao, Satoshi Yanagisawa, Tetsuo Asakura. Design, Expression and Characterization of Collagen-Like Proteins Based on the Cell Adhesive and Crosslinking Sequences Derived from natural Collagens, J Biochem. 136, 643-649 (2004).
Specific implementation method: A NIH/3T3 cell was cultured under standard conditions (purchased from Cell Bank of the Chinese Academy of Sciences, with catalog number of GNM6. Culture and passage methods followed a cell instruction). […] A natural human collagen (Sigma, Catalog No. C7774) was compared to a bovine serum albumin solution (BSA, purchased from Sangon Biotech (Shanghai) Co., Ltd.) (in ultrapure water or 1M HCl solution). Protein concentration was determined using the UV protein quantification empirical formula: C (mg/mL)=0.144×(A215-A225). Then, the protein was diluted to 0.5 mg/mL with PBS (pH 7.4).
100 μL of various protein solutions and blank PBS solution were added to a 96-well cell culture plate, and set aside 60 minutes at room temperature. Then, […] NIH/3T3 cells with good culture status were added to each well, and incubated at 37° C. and 5% CO2 for 60 minutes. The cells were cleaned in the wells 4 times with PBS. An absorbance value at OD492 nm was detected using a LDH detection kit (Roche, 04744926001). Data were analyzed and subject to significant differential analysis (SPSS 22 software, Duncan's method, P<0.05).
The absorbance value at OD492 nm characterized the cell adhesion activity of a collagen sample: higher adhesion activity indicated more cells adhering to the protein.

[1] = equivalent concentrations (0.5 mg/mL), NIH/3T3, Duncan's method P<0.05

Row | Molecule | cell adhesion activity compared with larger-molecular-weight recombinant type-XVII collagen [1] | cell adhesion activity (absorbance at OD492 nm) compared with natural human collagen | cell adhesion activity compared with larger-molecular-weight recombinant type-III collagen [1]
1 | 17S1NNT: 82 amino acids, positions 636 to 718 of full-length human collagen XVII, SEQ ID NO.5 | no significant difference | comparable to or superior to that of a natural human collagen | 
2 | B1 |  | comparable to or superior to that of a natural human collagen | significantly outperformed
